The results in this text go back to PubChem BioAssay (NCI).

Several values for one entry are separate records, joined by “and”; a condition that tells them apart may be missing. Identical values can stand only once.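 Grown in 96-well plates, cells were treated for 48 hours with each compound at five concentrations. Insufficient inhibition: endpoint recorded as highest concentration tested. GI50: concentration for 50% inhibition of growth. TGI: total growth inhibition.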

What all share (test): NCI tumour cell line growth inhibition, 48 h
Assay [1] relates to BT-549 breast.
Assay [2] relates to DMS 114 small cell lung.
In assay [3] the test system is DMS 273 small cell lung.
In assay [4] the test system is MDA-MB-231 breast.
Assay [5] concerns MDA-MB-435.
Assay [6] deals with MDA-N.
Assay [7] concerns P388 leukemia.
For assay [8], the system named is P388/ADR leukemia.
The subject of assay [9] is PC-3 prostate.
In assay [10] the test system is SN12K1 renal.
Assay [11] deals with T-47D breast.
The subject of assay [12] is RXF-631 renal.

Regarding `CNc1nc(N(C)C)nc(N(C)C)n1`, the TGI is 3620 µM in assay [1]; > 100 µM and 5500 µM in [2]; > 100 µM and 2740 µM in assay [3]; 2640 µM in [4]; 4420 µM in assay [5]; 2850 µM in assay [6]. In addition, the TGI in assay [7] was determined as 1530 µM; in [8], 1800 µM; in assay [9] it was 3960 µM; in assay [10], 2620 µM; in assay [11], 3720 µM. For the same compound, the GI50 was > 100 µM and 527 µM in [2]; > 100 µM and 1230 µM in assay [3].

On to `O=C1C[C@@H]2CCCC[C@@H]2C12SCCS2`, for which the TGI in assay [2], in assay [3] and in assay [12] was over 100 µM throughout.

For the compound `Cc1ccc(N2C(=O)/C(=C/c3ccc(N(CCC#N)CCC#N)cc3C)N=C2c2cc([N+](=O)[O-])ccc2Cl)cc1`, the TGI in assay [2], in assay [3] and in [12] was over 100 µM each time.
